From paper PMC9183037 (Polymers, 2022)

Tests used:
[1] = system: type 2 diabetic rats; assay: In vivo pharmacodynamics study: blood glucose in type 2 diabetic rats; design: species or system Sprague-Dawley (SD) rats; details: T2DM rats, subcutaneous 65 μg/kg
Description: SD rats were fed high-fat diets containing 45% fat to induce insulin resistance. After one-month diets, a standard 16 h fast in SD rats was conducted, and a 30 mg/mL STZ solution prepared with 0.1 mol/L citrate-sodium citrate buffer (pH 4.5) was injected intraperitoneally at a dose of 30 mg/kg (avoid light, the injection was completed within 30 min). Then the rats were given sufficient water and fasted. Restored the diet after 2 h. If the fasting blood glucose was higher than 16.67 mmol/L for two consecutive times, and the rats were accompanied by significant polydipsia, polyphagia, polyuria, and weight loss, it is considered to be successfully modeled and subsequent experiments could be carried out. To evaluate therapeutic effects, thirty T2DM rats were randomly divided into five groups, fasted overnight, and labeled respectively. […] Blood samples were collected from the tail tip at 0, 0.5, 1, 2, 3, 4, 6, and 10 h after administration to observe the changes in blood glucose levels, and the blood glucose-time curve was plotted.

[2] = system: Raji-B cells; assay: Cytotoxicity by MTT assay, 4 h incubation; assay type: cell-based, Human; details: 0.03-1 μM
Description: (§1) The cytotoxicity of chitosan-based nanoparticles was measured by MTT assay. Caco-2, HT-29, and Raji-B cells at the logarithmic growth stage were inoculated on 96-well plates at 5 × 10^3 cells per well, respectively. The cells were cultured at 37 °C, 5% CO2 for 48 h, then the culture medium was removed and 150 μL of drug-containing culture medium was added to the final concentrations of 1, 0.5, 0.25, 0.125, 0.06, and 0.03 μM. After incubation for 4 h, 20 μL of MTT solution (5 mg/mL) was added to each well, which was incubated for an additional 4 h. Then, the culture medium was discarded and replaced with 150 μL dimethyl sulfoxide. The plates were placed on the shaker and oscillated for 10 min.
(§2) The absorbance was measured at 570 nm using an enzyme marker (ST360, KHB, Shanghai, China). Cell viability was calculated as a percentage of the absorbance relative to that of the control.

[3] = system: Caco-2 cells; assay: Cytotoxicity by MTT assay, 4 h incubation; assay type: cell-based, Human; details: 0.03-1 μM
Description: as §1, §2

[4] = system: HT-29 cells; assay: Cytotoxicity by MTT assay, 4 h incubation; assay type: cell-based, Human; details: 0.03-1 μM
Description: as §1, §2

Molecule | time of minimum blood glucose concentration [1] | change of blood glucose concentration ([1]; 0-10 h) | cytotoxicity to Raji B cells [2] | cytotoxicity to Caco-2 cells [3] | cytotoxicity to HT-29 cells [4]
Insulin | 3 h | decreased significantly within 3 h | – | – | –
CCN(CC)c1ccc2c(-c3ccccc3C(=O)O)c3ccc(=[N+](CC)CC)cc-3oc2c1 [Rhodamine B] | – | – | no cytotoxicity | no cytotoxicity | no cytotoxicity
